Patent publication US11371994B2, “Phosphorylated Akt-specific capture agents, compositions, and methods of using and making” (California Institute of Technology, priority 2013, dated 2022)
Entries after “also recorded” stand apart in the source; their conditions may differ. Each block holds one compound with its values, some of them ahead of it. Square brackets hold non-standard residues; d marks the D form. Ends that are not written are not given here. * marks the point of attachment. S3 = D-Pra clicked to acylated azidolysine-PEG2-biotin, with 5-azido-pentanoic acid; 5FAM = O=C1OC2(c3ccc(O)cc3Oc3cc(O)ccc32)c2ccc(C(=O)*)cc21; 5‑azidopentanoyl = [N-]=[N+]=NCCCCC(=O)*; Lys(N3) = [N-]=[N+]=NCCCC[C@H](N)C(=O)O; Peg2 = PEG spacer (Fmoc-NH-(PEG)2-OH); dPra = C#CC[C@@H](N)C(=O)O; Ahx = NCCCCCC(=O)O

What was measured:
[1] = biological target: T1, Akt2 (Homo sapiens, UniProt P31751); details: read-out: equilibrium dissociation constant KD; SPR, Akt2 protein as analyte, 1:1 binding model, 10° C.
Description: A Biacore T100 machine was used for SPR experiments. A Streptavidin Chip (Series S, G.E. Healthcare) was conditioned as per manufacturer's recommendation. A stock of 1 mM biotinylated ligand was diluted into HBSP+ Buffer (G.E. Healthcare) to a final concentration of 100 nM and ˜150 RU was immobilized on the chip. Serial dilutions of the Akt2 protein were made in HBSP+ buffer for the experiment with the immobilized N-tL. The solution was flowed over the chip at 50 μL/min. Binding and dissociation were carried out at 10° C. with a contact time of 350 sec, a dissociation time of 390 sec, and a stabilization time of 200 sec, with buffer blanks between each concentration. The response was double corrected, using an unmodified reference flow cell and the response for the 0 concentration of Akt2 on the sample flow cell. The data was fitted to the kinetic Langmuir 1:1 binding model using the Biacore Evaluation software for T100 to calculate the dissociation constant.

[2] = biological target: T1, Akt2; test: Non-radioactive kinase assay, phosphorylation of GSK-3α/β fusion protein; format: biochemical; set-up: purchased Abcam; details: relative to DMSO control
Description: The non-radioactive kinase assay kit for Akt2 was purchased from Cell Signaling. Ligand solutions were made in DMSO. Kinase reactions were set up in 1× kinase buffer (25 mM trisHCl (pH 7.5), 10 mM MgCl2, 0.01% Triton-X, 1× Complete protease inhibitor (Roche), 1× Phosstop phosphatase inhibitor (Roche)), each 25 μL reaction mixture containing 400 ng Akt2, 400 ng GST-GSK-3α/β fusion protein, […] and 0.5 μL of peptide solutions in DMSO or DMSO only. Reactions were allowed to proceed for 30 minutes at 30° C. A reaction mixture was also prepared using a 1:2.5 dilution of anti pS473 antibody (Cell Signaling) in the kinase buffer instead of the peptide ligand or DMSO. The reactions were quenched by adding 12.5 μL of 2×SDS sample loading buffer and heating at 95° C. for five minutes. 10 μL from each sample was loaded on an any kD SDS gel (BioRad) and run for an hour at 110 volts. Following semidry transfer of the gel to a nitrocellulose membrane, the membrane was blocked in 5% nonfat milk/TBST for an hour at 4° C., and treated overnight at 4° C. with a 1:200 dilution of Phospho GSK-3α/β Ser (21/9) rabbit antibody (Cell Signaling) in 0.5% milk/TBST. Following washes, the membrane was treated with a 1:2000 dilution of mouse anti-rabbit-HRP antibody for an hour at 4° C. After four five minute washes with TBST, and one five minute wash with TBS, the membrane was treated with West Dura ECL substrate (Thermo Scientific) and imaged on film.

[3] = biological target: T1, Akt2; test: Single component ELISA, PCC agent as capture or detection agent (relative affinity); format: binding; set-up: purchased Abcam
From the text: FIG. 23: A. ELISA assays in which the PCC Agents are utilized as either as surface-localized capture agents (for N-tL, C-tL) or as the detection agent (for mono-L, bi-L). Such assays provide relative affinity measurements, which are given as EC50 values in the key. […] C. C-tL distinguishes the full length Akt2 from isoform proteins Akt1 and Akt3. D. The 32 amino acid long C terminal fragment from Akt2, Akt1 and Akt3. The hydrophobic motif is highlighted in blue. pS refers to phospho-serine. […] F. Selectivity assays: Biotinylated ligands or biotinylated pS473 antibody is immobilized on streptavidin-agarose and treated with OVCAR3 cell lysate. The eluents are stained with a pan-Akt antibody or pS473 Akt antibody.
1.25 μM biotinylated ligand was prepared by diluting the 1 mM stock in binding buffer (25 mM tris chloride, pH=7.4, 150 mM NaCl, 0.1% BSA, 0.05% Tween 20). The prepared ligand solution or 0.125% DMSO in buffer (buffer control) was immobilized on a High Capacity Streptavidin 96 well plate (Thermo Scientific). After washing away the excess ligand, the plate was blocked overnight with 1% BSA/25 mM tris chloride, pH=7.4/150 mM NaCl, 0.05% Tween 20. 2.5 μM solutions of the His6 (SEQ ID NO:28) tagged target phosphopeptide epitope Akt2 amino acids 450-481, His6 (SEQ ID NO:28) tagged Akt1 amino acids 449-480, His6 (SEQ ID NO:28) tagged Akt3 amino acids 448-479 were added to each of the wells. Following three washes with the binding buffer, the plate was treated for an hour with a 1:1000 dilution of anti His6 (SEQ ID NO:28) mouse monoclonal antibody. A 1:10,000 dilution of goat anti mouse antibody-Horse Radish Peroxide conjugate in binding buffer was added to the wells. The plates were washed four times, five minutes each, with 0.05% Tween 20/TBS (25 mM tris chloride, pH=7.5, 150 mM NaCl) and once with TBS (25 mM tris chloride, pH=7.5, 150 mM NaCl). Color was developed by adding TMB substrate (KPL) to each well. The reaction was quenched with 0.5 M H2SO4. The A450 measured on a 96-well plate reader. The Net A450 was obtained by subtracting the absorbance value for the blank control (no immobilized ligand) from each of the triplicate values obtained for the ligand-epitope interaction. The selectivity assay with full length His6 (SEQ ID NO:28) tagged Akt1, Akt2 and Akt3 was performed following the same protocol, using 25 nM protein instead of 2.5 μM His6 tagged peptide epitope.

[4] = biological target: T2, Akt (Homo sapiens, UniProt P31751); test: OVCAR3 lysate pull-down (immunoprecipitation) assay; format: binding; details: for immunoprecipitation of Akt from OVCAR3 cell lysate: eluents stained with pan-Akt antibody
T2 construct: endogenous in cells; host or cells: OVCAR3
Description: OVCAR3 cells (ATCC) were grown in RPMI-1640 media containing 20% fetal bovine serum. Passage three cells were grown to ˜80% confluence. Cells were lysed with lysis buffer (10 mM Tris-Cl (pH=7.5), 100 mM NaCl, 1% (v/v) Triton X-100, 0.1% SDS (w/v), 0.5% deoxycholate, 1 mM DTT, 1 mM EDTA, 1× PhosStop phosphatase inhibitors (Roche), 1× Complete protease inhibitors (Roche)) and the amount of protein measured using BCA Protein Assay Kit (Pierce Biotechnologies, Inc). Streptavidin-agarose resin solution (EMD) was swelled in TBST (25 mM tris chloride, pH=7.5, 150 mM NaCl, 0.05% Tween-20). Each of the biotinylated ligands was immobilized on the Streptavidin-agarose resin by adding 7.2 μL of 1 mM ligand stock (DMSO) to 10 μL of the swelled streptavidin-agarose resin. For the blank control, the resin was treated with 7.2 μL of 1 mM biotinylated acyl glycine. […] After shaking overnight at 4° C., 50 μM D-biotin was added to the resin to block any remaining sites. The resin was washed with TBST five times, for fifteen minutes each. The resin was then swelled in binding buffer for two hours. To each of the immobilized ligands, 200 μL OVCAR3 cell lysate (1.9 mg/ml) was added. The tubes were shaken at 4° C. for 18 hours. The beads were extensively washed, three times for fifteen minutes in binding buffer, three times (fifteen minutes) in TBST, and three times (fifteen minutes) in TBS to remove unbound proteins. The resin bound proteins were eluted by adding 40 μL of 2×SDS-PAGE sample loading buffer (BioRad) and heating at 95° C. for five minutes. A 1:10 diluted sample of lysate in sample loading buffer was prepared by mixing 1 μL of the sample with 9 μL sample loading buffer and denaturing the sample by heating at 95° C. for five minutes. 10 μL of each sample was loaded on a 12% SDS-PAGE gels (BioRad) and run for 80 minutes at 110 volts. Three identical gels were loaded and run at the same time. One gel was used for Coomassie staining with Coomassie Fluor Orange Protein Gel Stain (Molecular Probes) following the manufacturer's protocol. The two other gels were transferred to nitrocellulose membranes by the semidry transfer method, blocked for two hours at 4° C. with 5% non-fat milk, and treated overnight at 4° C. with a 1:1000 dilution of pan-Akt rabbit monoclonal antibody (Cell Signaling Technology) and a 1:1000 dilution of pS473 Akt rabbit monoclonal antibody (Cell Signaling Technology), respectively, in 0.5% non-fat milk. The membranes were washed and treated for an hour with a 1:10,000 dilution of monoclonal mouse anti-rabbit-HRP secondary antibody (Cell Signaling Technology) in 0.5% milk. After five washes of five minutes each with TBST and one wash of five minutes with TBS, the blots were developed with West Dura ECL substrate (Thermo Scientific) and imaged on film.

[5] = tested on: SKOV3 ovarian cancer cells; test: Western blots of treated SKOV3 cells (Akt signaling pathway); format: cell-based
Description: Western blots were performed according to standard protocols. Briefly, cells were lysed with cell lysis buffer (Cell Signaling Technology) containing protease and phosphatase inhibitors (Cell Signaling Technology). Cell lysates were quantified with a Bradford protein assay (Thermo Scientific) and prepared for gel electrophoresis in Laemmli sample buffer and reducing agent. 20 μg of cell lysate were added to precast polyacrylamide gels (Bio-Rad) and proteins were separated by electrophoresis followed by transfer to PVDF membrane. Membranes were then blocked and probed with primary antibodies followed by horseradish peroxidase-conjugated secondary antibodies. The following antibodies were used according to manufacturer protocol: p-GSK3β (Cell Signaling, 9323), GSK3 β (Cell Signaling, 12456), AKT (Cell Signaling, 4691), p-AKT (S473) (Cell Signaling, 4060), Actin (Cell Signaling, 8456), HRP-linked Anti-rabbit IgG (Cell Signaling, 7074). The bands were visualized by chemiluminescence (Thermo Scientific).

[6] = tested on: SKOV3 cells; test: XTT cell viability assay; format: cell-based; details: 50 μM
Description: (§1) The XTT assay kit was purchased from Cell Signaling Technology (#9095) and used according to manufacturer protocol. Briefly, 1×10^4 cells were seeded in a 96-well plate. The following day, cells were serum starved and treated with capture agent. Following treatment, the XTT tetrazolium salt was added to the media and after 1 hour the absorbance at 450 nm was measured in a 96-well plate reader.

[7] = tested on: OVCAR3 cells; test: XTT cell viability assay; format: cell-based; details: 50 μM
Description: as §1

T1 sequence (P31751 whole entry, the tested form may be a part): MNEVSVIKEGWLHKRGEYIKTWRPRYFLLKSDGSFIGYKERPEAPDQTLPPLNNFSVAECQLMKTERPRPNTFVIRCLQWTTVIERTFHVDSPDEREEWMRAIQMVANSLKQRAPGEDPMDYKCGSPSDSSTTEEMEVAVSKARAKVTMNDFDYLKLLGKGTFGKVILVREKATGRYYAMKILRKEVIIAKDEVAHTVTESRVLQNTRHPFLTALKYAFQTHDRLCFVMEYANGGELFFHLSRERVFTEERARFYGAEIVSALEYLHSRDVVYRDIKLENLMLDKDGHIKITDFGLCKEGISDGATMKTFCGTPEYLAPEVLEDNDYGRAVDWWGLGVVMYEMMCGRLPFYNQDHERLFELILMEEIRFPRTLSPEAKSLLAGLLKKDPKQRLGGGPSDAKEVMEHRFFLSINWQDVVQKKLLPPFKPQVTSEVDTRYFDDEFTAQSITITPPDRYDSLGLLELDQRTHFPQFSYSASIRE
T2 sequence (P31751 whole entry): as the sequence (P31751 whole entry, the tested form may be a part) above

Compound: CC(=O)NC(CCCCn1cc(C[C@@H](NC(=O)[C@H](CCCCn2cc(C[C@@H](NC(=O)[C@@H](Cc3ccccc3)NC(=O)[C@@H](Cc3ccc(O)cc3)NC(=O)CNC(=O)[C@@H](CC(N)=O)NC(=O)[C@@H](Cc3c[nH]cn3)NC(=O)[C@H](CCCCn3cc(C[C@@H](NC(C)=O)C(=O)N[C@H](Cc4ccc(O)cc4)C(=O)N[C@H](Cc4ccc(O)cc4)C(=O)N[C@H](CCCNC(=N)N)C(=O)N[C@H](Cc4ccccc4)C(=O)NCC(N)=O)nn3)NC(C)=O)C(=O)O)nn2)NC(C)=O)C(=O)N[C@H](Cc2c[nH]c3ccccc23)C(=O)N[C@H](CCCCN)C(=O)N[C@@H](C(=O)N[C@H](CCCCN)C(=O)N[C@H](CC(C)C)C(N)=O)C(C)C)nn1)C(=O)NCCOCCOCCOCCC(=O)NCCNC(=O)CCCC[C@@H]1SC[C@@H]2NC(=O)N[C@@H]21 (some centres unmarked) [N-tL]
- Kd [1]: 25 nM
- influence on Akt2 kinase activity (p-GSK-3α/β level) [2]: activate Akt above baseline; also recorded: activate Akt2
- EC50 ([3]; read-out: EC50 from single component ELISA): 19 nM
- affinity ([3]; strongest binding triligand): ~20 nM
- immunoprecipitation of phosphorylated Akt from OVCAR3 cell lysate ([4]; eluents stained with pS473 Akt antibody): immunoprecipitate comparable amounts of active pS473 Akt
- immunoprecipitation of Akt from OVCAR3 cell lysate [4]: immunoprecipitates more Akt, irrespective of its phosphorylation state
- immunoprecipitation of Akt from OVCAR3 cell lysate ([4]; listed as N-tri1): more efficient; also recorded: immunoprecipitate Akt2 from OVCAR3 cells

Compound: tri_a: Akt-activating N-terminal triligand, conjugated to HIV TAT peptide via PEG spacers for cell assays (FIG. 28, 33A) (peptide 1 WKVKL; peptide 2 HNGYF; peptide 3 XYYRFG; peptide 4 GRKKRRQRRRPPQQ; not fully specified; D-residues; non-natural residues)
- p-Akt level ([5]; 50 μM, time course): initially increases and then steadily decreases over time
- p-GSK-3β level ([5]; 50 μM, time course): highest level of GSK3B phosphorylation is seen after 1 hour treatment; also recorded: clear increase in the p-GSK-3β level relative to the untreated and EGF-stimulated cells
- cell viability (XTT) [6]: significant increase in viability after 1 day treatment followed by a decline; also recorded: initial spike in cell viability after 24 hours, followed by a linear decrease with time
- cell viability (XTT) [7]: significant increase in viability after 1 day treatment followed by a decline; also recorded: sharp increase after 24 hours is followed by a steady decrease before finally stabilizing
- influence on Akt2 kinase activity (p-GSK-3α/β level) [2]: activate

- influence on Akt2 kinase activity (p-GSK-3α/β level) [2]: inhibit
Compound: tri_i: Akt-inhibiting C-terminal triligand, TAT-modified, with fluorescein label (FIG. 31, 35a) (peptide 1 Ac-[Lys(N3)][dH][dD]GG[dF]; peptide 2 S3-[dW][dK][dV][dK]; peptide 3 {5FAM-Ahx-Cys-Peg2}-[dH][dN]G[dY][dF][dPra]; peptide 4 {5‑azidopentanoyl-Peg2}-GRKKRRQRRRPPQQ-NH2; not fully specified (C-terminus); also: arms joined by triazoles, fluorescein label (Peg2-Cys-Ahx-5-carboxyfluorescein) coupled via DBCO-maleimide to TAT)
- phospho-GSK-3β level after pretreatment and EGF stimulation ([5]; 50 μM, 1, 6 and 12 hours pretreatment, then EGF 10 minutes): less phospho-GSK-3β than EGF stimulation alone; also recorded: less phospho-GSK3-β than untreated cells stimulated with EGF alone
- phospho-GSK-3β level after pretreatment and EGF stimulation ([5]; 50 μM, 24 hours pretreatment, then EGF): dramatic increase in levels of phospho-GSK3-β
- cell viability (XTT) [6]: significant decrease in viability after 1 day treatment; also recorded: initial drop in cell viability and remain consistently lower than untreated cells for 5 days
- cell viability (XTT) [7]: significant decrease in viability after 1 day treatment; also recorded: initial drop in cell viability after 24 hours, followed by an increase before finally decreasing again
